{"source": "ChEMBL document CHEMBL5523739", "about": "“NN1213 - A Potent, Long-Acting, and Selective Analog of Human Amylin” (J Med Chem, 2024)", "key": {"Rattus norvegicus [1]": {"test_system": "Rattus norvegicus", "experiment": "Effect on lean mass of HFD-fed DIO rat model at 0.7 to 22 nmol/kg, sc qd measured after 21 days", "type": "functional, organism-based", "settings": "dose 0.7-22 nmol/kg, time 21.0 day"}, "[2]": {"experiment": "Solubility of compound at pH 6 incubated overnight by UPLC analysis", "type": "physicochemical", "settings": "buffer"}, "[3]": {"experiment": "[…] bioavailability in rat at 2.5 nmol/kg, sc", "type": "ADME, organism-based", "settings": "in vivo"}, "Calcitonin receptor [4]": {"molecular_target": "T1, Calcitonin receptor (Homo sapiens, UniProt P30988)", "T1 sequence (P30988 whole entry)": "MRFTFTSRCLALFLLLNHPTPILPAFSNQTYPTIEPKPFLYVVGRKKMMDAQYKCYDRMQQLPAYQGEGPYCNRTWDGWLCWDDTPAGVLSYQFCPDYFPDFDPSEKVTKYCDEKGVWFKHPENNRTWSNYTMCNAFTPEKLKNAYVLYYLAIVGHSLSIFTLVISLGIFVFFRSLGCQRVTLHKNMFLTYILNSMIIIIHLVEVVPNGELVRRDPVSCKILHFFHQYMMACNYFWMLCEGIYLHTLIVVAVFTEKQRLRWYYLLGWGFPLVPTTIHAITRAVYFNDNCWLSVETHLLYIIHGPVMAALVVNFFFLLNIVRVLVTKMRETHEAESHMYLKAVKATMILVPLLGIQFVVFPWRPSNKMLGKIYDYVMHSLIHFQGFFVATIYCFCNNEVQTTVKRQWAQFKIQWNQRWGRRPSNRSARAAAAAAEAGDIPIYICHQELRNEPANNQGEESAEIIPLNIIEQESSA", "experiment": "Agonist activity at human CTR expressed in Baby hamster kidney cells incubated for 3 hrs followed by medium replacement without compound measured after 30 mins by luciferase reporter assay", "type": "functional, cell-based, Baby hamster kidney cell"}, "Rattus norvegicus [5]": {"test_system": "Rattus norvegicus", "experiment": "Appetite suppressing activity in rat assessed as reduction in food intake at 100 nmol/kg, sc measured for 48 hrs relative to control", "type": "functional", "parameters": "scale not given: the % may be the effect or the level left"}, "[6]": {"molecular_target": "Amylin receptor AMY2; CALCR/RAMP2 (Homo sapiens, UniProt O60895+P30988)", "sequence (O60895 whole entry, one chain of several)": "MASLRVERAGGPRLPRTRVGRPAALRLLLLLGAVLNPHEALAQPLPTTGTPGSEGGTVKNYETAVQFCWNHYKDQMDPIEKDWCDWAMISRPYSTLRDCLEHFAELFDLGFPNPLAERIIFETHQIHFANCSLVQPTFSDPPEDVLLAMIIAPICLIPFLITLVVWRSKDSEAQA", "experiment": "Agonist activity at human AMY2R complex of CTR/RAMP2 transduced in human HeLa cells by cAMP assay", "type": "functional, cell-based"}, "Rattus norvegicus [7]": {"test_system": "Rattus norvegicus", "experiment": "Appetite suppressing activity in rat assessed as reduction in food intake at 30 nmol/kg, sc measured upto 24 hrs relative to control", "type": "functional", "parameters": "scale not given: the % may be the effect or the level left"}, "[8]": {"experiment": "Toxicity in dog assessed as sign of discomfort at 3 to 300 nmol/kg, sc", "parameters": "species or system Canis lupus familiaris", "settings": "in vivo, dose 3-300 nmol/kg"}, "[9]": {"experiment": "Solubility of compound at pH 7 incubated overnight by UPLC analysis", "type": "physicochemical", "settings": "buffer"}, "[10]": {"experiment": "Stability against amyloid fibril formation at pH 7.5 assessed as compound recovery at 1 uM measured after 45 hrs by ThT assay", "type": "physicochemical", "settings": "pH 7.5, 45 h"}, "[11]": {"experiment": "Solubility of compound at pH 6.5 incubated overnight by UPLC analysis", "type": "physicochemical", "settings": "buffer"}, "[12]": {"experiment": "Terminal half life in Gottingen minipig at 4.8 nmol/kg, iv", "type": "ADME, Sus scrofa", "settings": "pig, in vivo, read-out: beta t1/2 (converted)"}, "[13]": {"molecular_target": "T2, Amylin receptor AMY3; CALCR/RAMP3 (Rattus norvegicus, UniProt P32214+Q9JJ73)", "T2 sequence (P32214 whole entry)": "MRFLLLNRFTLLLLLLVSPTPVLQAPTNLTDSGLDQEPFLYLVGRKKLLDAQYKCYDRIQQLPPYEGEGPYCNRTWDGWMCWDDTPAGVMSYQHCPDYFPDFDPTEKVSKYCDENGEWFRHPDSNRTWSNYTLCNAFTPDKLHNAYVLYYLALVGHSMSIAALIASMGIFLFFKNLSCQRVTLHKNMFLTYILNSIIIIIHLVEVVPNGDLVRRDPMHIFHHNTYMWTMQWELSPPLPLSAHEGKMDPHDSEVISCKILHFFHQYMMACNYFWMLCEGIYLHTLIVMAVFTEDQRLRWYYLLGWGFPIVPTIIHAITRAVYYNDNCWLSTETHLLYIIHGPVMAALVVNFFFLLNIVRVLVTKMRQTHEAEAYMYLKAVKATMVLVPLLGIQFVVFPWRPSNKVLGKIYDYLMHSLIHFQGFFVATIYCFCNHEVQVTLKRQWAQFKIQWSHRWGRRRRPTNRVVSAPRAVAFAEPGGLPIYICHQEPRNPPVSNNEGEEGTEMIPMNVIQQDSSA", "T2 sequence (Q9JJ73 whole entry)": "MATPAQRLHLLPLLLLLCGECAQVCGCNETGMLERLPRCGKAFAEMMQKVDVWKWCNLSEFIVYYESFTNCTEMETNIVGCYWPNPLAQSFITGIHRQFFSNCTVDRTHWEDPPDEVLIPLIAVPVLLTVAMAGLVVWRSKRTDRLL", "experiment": "Displacement of 125I-rat amylin from rat AMY3R complex of CTR/RAMP3 expressed in Baby hamster kidney cell membrane incubated for 120 mins by SPA method", "type": "cell membranes"}, "Canis familiaris": {"test_system": "Canis familiaris", "experiment": "Appetite suppressing activity in dog assessed as reduction in food intake at 30 nmol/kg, sc measured upto 7 days", "type": "functional, organism-based", "settings": "Canis lupus familiaris, time <= 7.0 day"}, "Rattus norvegicus [14]": {"test_system": "Rattus norvegicus", "experiment": "Appetite suppressing activity in HFD-fed DIO rat model assessed as reduction in body weight at 2.2 to 22 nmol/kg, sc qd measured for 21 days relative to control", "type": "functional", "parameters": "scale not given: the % may be the effect or the level left", "settings": "dose 2.2-22 nmol/kg, time 21 day"}, "Calcitonin receptor [15]": {"molecular_target": "T1, Calcitonin receptor", "experiment": "Displacement of 125I-Calcitonin from human CTR expressed in Baby hamster kidney cell membrane incubated for 120 mins by SPA method", "type": "cell membranes"}, "Rattus norvegicus [16]": {"test_system": "Rattus norvegicus", "experiment": "Appetite suppressing activity in HFD-fed DIO rat model assessed as reduction in food intake at 0.7 nmol/kg, sc qd measured for 21 days relative to control", "type": "functional", "parameters": "scale not given: the % may be the effect or the level left", "settings": "time 21 day"}, "[17]": {"experiment": "Solubility of compound at pH 7.5 incubated overnight by UPLC analysis", "type": "physicochemical", "settings": "buffer"}, "[18]": {"molecular_target": "T2, Amylin receptor AMY3; CALCR/RAMP3", "experiment": "Agonist activity at rat AMY3R complex of CTR/RAMP3 expressed in Baby hamster kidney cells incubated for 3 hrs by cAMP assay", "type": "functional, cell-based, Baby hamster kidney cell"}, "Rattus norvegicus [19]": {"test_system": "Rattus norvegicus", "experiment": "Appetite suppressing activity in HFD-fed DIO rat model assessed as reduction in body weight administered subcutaneously once daily measured after 21 days", "type": "functional, organism-based", "settings": "dose 0.7-22 nmol/kg, route sc, time 21.0 day"}, "[20]": {"experiment": "Solubility of compound at pH 3 incubated overnight by UPLC analysis", "type": "physicochemical", "settings": "buffer"}, "[21]": {"experiment": "Terminal half life in rat at 2.5 nmol/kg, sc", "type": "ADME", "settings": "in vivo, read-out: beta t1/2 (converted)"}, "Rattus norvegicus [22]": {"test_system": "Rattus norvegicus", "experiment": "Appetite suppressing activity in HFD-fed DIO rat model assessed as reduction in food intake at 0.7 to 22 nmol/kg, sc qd measured after 15 days", "type": "functional, organism-based", "settings": "dose 0.7-22 nmol/kg, time 15.0 day"}, "[23]": {"molecular_target": "T3, Amylin receptor AMY3; CALCR/RAMP3 (Homo sapiens, UniProt O60896+P30988)", "T3 sequence (P30988 whole entry)": "T1 sequence (P30988 whole entry)", "T3 sequence (O60896 whole entry)": "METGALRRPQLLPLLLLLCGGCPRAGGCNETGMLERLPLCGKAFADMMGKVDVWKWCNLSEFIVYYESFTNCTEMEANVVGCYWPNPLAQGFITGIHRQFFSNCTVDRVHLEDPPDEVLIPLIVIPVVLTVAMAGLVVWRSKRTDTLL", "experiment": "Displacement of 125I-rat amylin from human AMY3R complex of CTR/RAMP3 expressed in Baby hamster kidney cell membrane incubated for 120 mins by SPA method", "type": "cell membranes"}, "[24]": {"experiment": "Terminal half life in Beagle dog at 6 nmol/kg, iv", "type": "ADME, Canis lupus familiaris", "settings": "in vivo, read-out: beta t1/2 (converted)"}, "[25]": {"experiment": "Stability against amyloid fibril formation at pH 7.5 assessed as lag time at 1 uM measured after 45 hrs by ThT assay", "type": "physicochemical", "settings": "pH 7.5, 45 h"}}, "note": "pEC50, pIC50: −log10 of the molar value. Calls of active or inactive are those of the source. The calls are words filed in the database; no cut-off is given here.", "data": [{"smiles": "CC[C@H](C)[C@H](NC(=O)[C@H](C)NC(=O)CNC(=O)[C@H](Cc1ccccc1)NC(=O)[C@H](CC(N)=O)NC(=O)[C@@H]1CCCN1C(=O)[C@H](CO)NC(=O)[C@H](CO)NC(=O)[C@H](Cc1c[nH]cn1)NC(=O)[C@H](CCCNC(=N)N)NC(=O)[C@H](CC(C)C)NC(=O)[C@H](Cc1ccccc1)NC(=O)[C@H](CC(=O)O)NC(=O)[C@H](C)NC(=O)[C@H](CC(C)C)NC(=O)[C@H](CCCNC(=N)N)NC(=O)[C@H](CCC(N)=O)NC(=O)[C@@H](NC(=O)[C@H](C)NC(=O)[C@@H]1CSSC[C@H](NC(=O)[C@@H](N)CCCCN)C(=O)N[C@@H](CC(N)=O)C(=O)N[C@@H]([C@@H](C)O)C(=O)N[C@@H](C)C(=O)N[C@@H]([C@@H](C)O)C(=O)N1)[C@@H](C)O)C(=O)N1CCC[C@H]1C(=O)N[C@@H](CO)C(=O)N[C@@H](CO)C(=O)N[C@H](C(=O)N[C@@H](CC(N)=O)C(=O)N[C@H](C(=O)NCC(=O)N[C@@H](CO)C(=O)N[C@@H](CCCNC(=N)N)C(=O)N[C@H](C(=O)N[C@@H](Cc1ccc(O)cc1)C(N)=O)[C@@H](C)O)C(C)C)[C@@H](C)O", "values": [{"measurement": "Activity", "setting": "Rattus norvegicus [1]", "result": "inactive"}, {"measurement": "solubility", "setting": "[2]", "result": "≥ 200", "unit": "µM"}, {"measurement": "bioavailability", "setting": "[3]", "result": "~40", "unit": "%"}, {"measurement": "pEC50", "setting": "Calcitonin receptor [4]", "result": 8.28}, {"measurement": "Activity", "setting": "Rattus norvegicus [5]", "result": 70, "unit": "%"}, {"measurement": "pEC50", "setting": "[6]", "result": 9.74}, {"measurement": "Activity", "setting": "Rattus norvegicus [7]", "result": 70, "unit": "%"}, {"measurement": "Activity", "setting": "[8]", "result": "Non-Toxic"}, {"measurement": "solubility", "setting": "[9]", "result": 155, "unit": "µM"}, {"measurement": "Drug recovery", "setting": "[10]", "result": 96, "unit": "%"}, {"measurement": "solubility", "setting": "[11]", "result": "≥ 200", "unit": "µM"}, {"measurement": "half-life", "setting": "[12]", "result": "~115", "unit": "h"}, {"measurement": "pIC50", "setting": "[13]", "result": 9.54}, {"measurement": "Activity", "setting": "Canis familiaris", "result": "Active"}, {"measurement": "Activity", "setting": "Rattus norvegicus [14]", "result": 8.7, "unit": "%"}, {"measurement": "pIC50", "setting": "Calcitonin receptor [15]", "result": 7.38}, {"measurement": "Activity", "setting": "Rattus norvegicus [16]", "result": 4.7, "unit": "%"}, {"measurement": "solubility", "setting": "[17]", "result": 106, "unit": "µM"}, {"measurement": "pEC50", "setting": "[18]", "result": 9.58}, {"measurement": "Activity", "setting": "Rattus norvegicus [19]", "result": "Dose-Dependent Effect"}, {"measurement": "solubility", "setting": "[20]", "result": "≥ 200", "unit": "µM"}, {"measurement": "half-life", "setting": "[21]", "result": "~24", "unit": "h"}, {"measurement": "Activity", "setting": "Rattus norvegicus [22]", "result": "inactive"}, {"measurement": "pIC50", "setting": "[23]", "result": 9.25}, {"measurement": "half-life", "setting": "[24]", "result": "~76", "unit": "h"}, {"measurement": "Time", "setting": "[25]", "result": 42, "unit": "h"}]}]}
